Read-outs that look alike come from different tables or passages of the source.
Assays:
cat T1R1/T1R3 receptor = cat T1R1/T1R3 receptor (Felis catus, UniProt E3UMS2); test: cell-based; conditions: for Max resp % of IMP: hek293 cells
Text: (§1) HEK293 cells that stably express T1R3 and inducibly express T1R1 were exposed to nucleotide derivatives alone or in combination with one or more amino acids and/or one or more nucleotides to activate the umami receptor. Activation of the T1R1/T1R3 receptor was detected by a change in intracellular calcium levels using a calcium sensitive fluorescent dye and/or a luminescent reporter system. Cells that express T1R3 but not T1R1 were used as a control. A FLIPR® Tetra or a FlexStation® 3 was used for data capture.

T1R1/T1R3 receptor = T1R1/T1R3 receptor (Felis catus, UniProt E3UMS2); test: cell-based; format: cell-based; conditions: for Max resp % of Ala +IMP (0.2 mM): relative to Ala; for Max resp ΔF/F +Alanine (20 mM) / Thres (mM) +Alanine (20 mM) / Max resp % of IMP +Alanine (20 mM): in the presence of 20 mM alanine; for Max resp % of IMP +Alanine (20 mM): relative to IMP; for activation of T1R1/T1R3 by the compound alone: in words
Text: as §1, with “transmembrane compounds” for “nucleotide derivatives”, “dye.” for “dye and/or a luminescent reporter system.”
In each experiment, serial dilutions of up to 10 mM of the transmembrane compound were added to the T1R1/T1R3-expressing cells.

[1] = EC50 (mM), + Alanine (20 mM), Table 15
[2] = EC50 (mM) +IMP (0.2 mM), in the presence of 0.2 mM IMP
[3] = compound alone in buffer, read-out: EC50 (mM) +buffer (alone)

Row | Compound | Max resp ΔF/F +IMP (0.2 mM) (T1R1/T1R3 receptor; in the presence of 0.2 mM IMP) | Thres (mM) +IMP (0.2 mM) (T1R1/T1R3 receptor; in the presence of 0.2 mM IMP) [mM] | Max resp % of Ala +IMP (0.2 mM) (T1R1/T1R3 receptor; in the presence of 0.2 mM IMP) [%] | Max resp ΔF/F +Alanine (20 mM) (T1R1/T1R3 receptor) | Thres (mM) +Alanine (20 mM) (T1R1/T1R3 receptor) [mM] | Max resp % of IMP +Alanine (20 mM) (T1R1/T1R3 receptor) [%] | further results
1 | NC(=O)c1ncn(C2OC(COP(=O)(O)O)C(O)C2O)c1N (stereo not drawn) |  |  |  |  |  |  | EC50 (cat T1R1/T1R3 receptor; EC50-with Ala (mM)): > 1 mM
2 | Nc1ncnc2c1ncn2C1OC(COP(O)(O)=S)C(O)C1O (stereo not drawn) |  |  |  |  |  |  | Activity (cat T1R1/T1R3 receptor): active; Thres (cat T1R1/T1R3 receptor): 0.003 mM; Max resp % of IMP (cat T1R1/T1R3 receptor): 128.4 % of IMP
3 | NC1NC(=O)c2ncn([C@H]3O[C@@H](COP(=O)(O)O)[C@H](O)[C@@H]3O)c2N1 (stereo partly drawn) |  |  |  |  |  |  | EC50 (cat T1R1/T1R3 receptor; in the presence of 20 mM alanine, read-out: EC50-with Ala): 0.03 mM
4 | O=C(Nc1ncnc2c1ncn2[C@@H]1O[C@H](COP(=O)(O)O)[C@@H](O)[C@H]1O)c1ccccc1 |  |  |  |  |  |  | Thres (cat T1R1/T1R3 receptor): 0.3 mM; EC50 (cat T1R1/T1R3 receptor; [1]): > 1 mM; Max resp % of IMP (cat T1R1/T1R3 receptor): 105.6 % of IMP
5 | O=P(O)(O)OCC1OC(n2cnc3c(Nc4ccccc4)ncnc32)C(O)C1O (stereo not drawn) |  |  |  |  |  |  | EC50 (cat T1R1/T1R3 receptor; EC50-with Ala (mM), in the presence of 20 mM alanine): > 1 mM
6 | O=c1ccn(C2OC(COP(=O)(O)N3CCOCC3)C(O)C2O)c(=O)[nH]1 (stereo not drawn) |  |  |  |  |  |  | EC50 (cat T1R1/T1R3 receptor; [1]): > 3 mM
7 | O=C(Nc1ccccc1Br)N[C@@H]1c2ccccc2C[C@@H]1O (stereo in doubt) [1-(2-bromophenyl)-3-((1R,2S)-2-hydroxy-2,3-dihydro-1H-inden-1-yl)urea] | 0.378 | 3 | 44.9 | 0.3 | 3 | 33.0 | 
8 | O=C(CN1C(=O)C(=O)N(Cc2ccccc2)C1=O)c1ccccc1 [1-benzyl-3-(2-oxo-2-phenylethyl)imidazolidine-2,4,5-trione] | 1.140 | 0.08 | 135.7 | 1.3 | 1 | 127.6 | 
9 | CSc1ccc(-c2nnn(Cc3ccccn3)n2)cc1 [2-((5-(4-(methylthio)phenyl)-2H-tetrazol-2-yl)methyl)pyridine] | 0.678 | 0.1575 | 80.7 |  |  |  | 
10 | CCC(CC)NC(=O)c1ccc(OC)c(OC)c1 [3,4-dimethoxy-N-(pentan-3-yl)benzamide] | 0.9975 | 0.5 | 81.0 | 0.545 | 0.3 | 43.9 | 
11 | CCC(CC)NC(=O)c1ccc(C)c(C)c1 [3,4-dimethyl-N-(pentan-3-yl)benzamide] | 1.5475 | 0.525 | 125.7 | 1.2150 | 3 | 97.8 | 
12 | COc1ccc(C(=O)NC(C)c2ccccc2)cc1C (stereo not drawn) [4-methoxy-3-methyl-N-(1-phenylethyl)benzamide] | 1.1775 | 0.35 | 95.6 | 0.51 | 3 | 41.0 | 
13 | CCCC(C)NC(=O)c1ccc(OC)c(C)c1 (stereo not drawn) [4-methoxy-3-methyl-N-(pentan-2-yl)benzamide] | 1.5875 | 0.025 | 128.9 | 1.5650 | 0.050 | 126.0 | 
14 | CCC(CC)NC(=O)c1ccc(Br)o1 [5-bromo-N-(pentan-3-yl)furan-2-carboxamide] | 1.8425 | 0.3 | 149.6 | 1.575 | 1 | 126.8 | 
15 | CCCC(C)NC(=O)/C=C/c1ccc(OC)c(OC)c1 (stereo not drawn) [(E)-3-(3,4-dimethoxyphenyl)-N-(pentan-2-yl)acrylamide] | 1.07 | 0.55 | 86.9 | 0.4375 | 1 | 35.2 | EC50 (T1R1/T1R3 receptor): > 10 mM; EC50 (T1R1/T1R3 receptor; [2]): 2.2 mM; EC50 (T1R1/T1R3 receptor; [3]): > 10 mM
16 | COc1ccc(/C=C/C(=O)NC2CCCCC2C)cc1 (stereo not drawn) [(E)-3-(4-methoxyphenyl)-N-(2-methylcyclohexyl)acrylamide] | 1.7725 | 0.3 | 144.0 | 0.785 | 3 | 63.2 | 
17 | CCC(CC)NC(=O)/C=C/c1ccc(OC)cc1 [(E)-3-(4-methoxyphenyl)-N-(pentan-3-yl)acrylamide] | 1.443 | 0.0375 | 171.7 | 0.7 | 0.148 | 64.1 | 
18 | COC(=O)C(NC(=O)/C=C/c1cccs1)C(C)C (stereo not drawn) [(E)-methyl 3-methyl-2-(3-(thiophen-2-yl)acrylamido)butanoate] | 0.7375 | 1 | 59.9 | 0.1175 | 10 | 9.5 | 
19 | O=C(NCCc1ccccc1)C(=O)NCc1cccnc1 [N1-phenethyl-N2-(pyridin-3-ylmethyl)oxalamide] | 0.7625 | 0.1 | 61.9 | 0.3750 | 1 | 30.2 | 
20 | CC1CCCC(NC(=O)c2ccc3c(c2)OCO3)C1C (stereo not drawn) [N-(2,3-dimethylcyclohexyl)benzo[d][1,3]dioxole-5-carboxamide] | 1.175 | 0.275 | 95.4 | 0.225 | 3 | 18.1 | 
21 | COc1cc(C(=O)NC(C(N)=O)c2ccccc2)cc(Cl)c1OC (stereo not drawn) [N-(2-amino-2-oxo-1-phenylethyl)-3-chloro-4,5-dimethoxybenzamide] | 0.415 | 0.17 | 49.4 |  |  |  | activation of T1R1/T1R3 by the compound alone (T1R1/T1R3 receptor): failed to activate T1R1/T1R3 alone
22 | CCCC(CCC)C(=O)Nc1ccc2c(c1)OCO2 [N-(benzo[d][1,3]dioxol-5-yl)-2-propylpentanamide] | 0.908 | 0.0675 | 108.0 |  |  |  | activation of T1R1/T1R3 by the compound alone (T1R1/T1R3 receptor): agonist of T1R1/T1R3 alone
23 | CCC(CC)NC(=O)c1ccc2c(c1)OCCO2 [N-(pentan-3-yl)-2,3-dihydrobenzo[b][1,4]dioxine-6-carboxamide] | 0.8725 | 0.075 | 70.9 | 0.3125 | 0.3 | 25.2 | 
24 | CCOC(=O)C(NC(=O)c1ccc2c(c1)OCO2)C(C)C (stereo not drawn) [ethyl 2-(benzo[d][1,3]dioxole-5-carboxamido)-3-methylbutanoate] | 0.65 | 1 | 52.8 | 0.3175 | 10 | 25.6 | EC50 (T1R1/T1R3 receptor): > 10 mM; EC50 (T1R1/T1R3 receptor; [2]): > 3 mM; EC50 (T1R1/T1R3 receptor; [3]): > 10 mM
